Assay results reported in PubChem BioAssay (NCI).
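Growth conditions: 96-well plates. Treatment: test compound, 48 hours, 5 concentrations. Analysis: linear interpolation between bracketing concentrations; unreached endpoints set to highest concentration. GI50 = concentration required for 50% inhibition of growth. TGI is the concentration that stops growth completely.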

Legend:
Assay in all cases: NCI anticancer screen, dose series, 48 h
[1] = test system: HL-60(TB) leukemia
[2] = test system: MCF7 breast
[3] = test system: NCI-H23 lung
[4] = test system: NCI-H522 lung
[5] = test system: OVCAR-5 ovarian
[6] = test system: OVCAR-8 ovarian
[7] = test system: SNB-19 CNS
[8] = test system: NCI-H226 lung
[9] = test system: OVCAR-4 ovarian
[10] = test system: SK-MEL-28 melanoma

For `c1cncc(C(Nc2cccc3cccnc23)Nc2cccc3cccnc23)c1`, the TGI [1] was > 100 µM, the TGI [2] was > 100 µM and the TGI [3] was > 100 µM. For the same compound, the TGI [4] was > 100 µM, the TGI [5] was > 100 µM and the TGI [6] was > 100 µM. The TGI [7] was > 100 µM.

In the case of `Cc1nn2c(/C=C3/C(=O)Nc4ccc(Cl)cc43)c(-c3ccccc3)nc2s1`, the GI50 [1] is reported as 28.8 µM, the TGI [1] is reported as > 100 µM and the GI50 [2] is reported as 3.85 µM. It also gave a TGI [2] of 25 µM, a GI50 [8] of 1.51 µM and a TGI [8] of 4.6 µM. For the same compound, the GI50 [3] was 4.1 µM, the TGI [3] was > 100 µM and the GI50 [4] was 4.26 µM. It also gave a TGI [4] of 17.9 µM, a GI50 [9] of 1.66 µM and a TGI [9] of 3.64 µM. For the same compound, the GI50 [5] was 8.38 µM, the TGI [5] was 25.9 µM and the GI50 [6] was 2.19 µM. The TGI [6] was 5.76 µM, the GI50 [10] was 2.65 µM and the TGI [10] was 7.06 µM. It also gave a GI50 [7] of 9.54 µM and a TGI [7] of 34.2 µM.

With `COc1cc2c(OC)c(c1)CCCC1=CC(=O)C=C(CCC2)C1=O` the TGI [1] was 24.6 µM, the TGI [2] was > 100 µM and the TGI [8] was > 100 µM. For the same compound, the TGI [3] was > 100 µM, the TGI [4] was 46.2 µM and the TGI [9] was 31.1 µM. The TGI [5] was > 100 µM, the TGI [6] was > 31.6 µM and the TGI [10] was > 100 µM. For the same compound, the TGI [7] was > 100 µM.

`COc1ccc(/C=C(\C#N)c2cc(OC)c3c(c2)OCO3)cc1` was tested, and the GI50 [1] was 0.0128 µM, the TGI [1] was 54.7 µM and the GI50 [2] was < 0.0118 µM. The TGI [2] was 19.8 µM, the GI50 [8] was 0.0249 µM and the TGI [8] was 2.56 µM. For the same compound, the GI50 [3] was < 0.0143 µM, the TGI [3] was 24.3 µM and the GI50 [4] was < 0.01 µM. For the same compound, the GI50 [9] was 0.0617 µM, the TGI [9] was > 66.6 µM and the GI50 [5] was 0.0797 µM. For the same compound, the TGI [5] was 80.9 µM, the GI50 [6] was 0.026 µM and the TGI [6] was 34.5 µM. For the same compound, the GI50 [10] was 0.0117 µM, the TGI [10] was 44.8 µM and the GI50 [7] was 0.0278 µM. For the same compound, the TGI [7] was > 100 µM.

`CCS(=O)(=O)c1ccc(OC)c(Nc2nccc(N(C)c3ccc4c(C)[nH]nc4c3)n2)c1` showed a GI50 [1] of 7.37 µM, a TGI [1] of 18.9 µM and a GI50 [2] of 9.16 µM. For the same compound, the TGI [2] was > 25 µM, the GI50 [8] was 1.85 µM and the TGI [8] was > 21.1 µM. For the same compound, the GI50 [3] was 6.05 µM, the TGI [3] was > 25 µM and the GI50 [4] was 3.57 µM. The TGI [4] was 10.5 µM, the GI50 [9] was 5.66 µM and the TGI [9] was > 25 µM. For the same compound, the GI50 [5] was 5.75 µM, the TGI [5] was > 22.7 µM and the GI50 [6] was 7.22 µM. For the same compound, the TGI [6] was > 22.2 µM, the GI50 [10] was 6.8 µM and the TGI [10] was > 25 µM. The GI50 [7] was 9.74 µM and the TGI [7] was > 25 µM.

Compound `CCC(C)/C=C(C)/C=C/C(=O)c1c(O)c(-c2ccc(O)cc2)c[nH]c1=O` (centres undefined) has a GI50 [1] of 2.43 µM, a TGI [1] of 21.2 µM and a GI50 [2] of 2.9 µM. The TGI [2] was 15 µM, the GI50 [8] was 8.07 µM and the TGI [8] was 22.9 µM. For the same compound, the GI50 [3] was 3.62 µM, the TGI [3] was 17.6 µM and the GI50 [4] was 3.3 µM. For the same compound, the TGI [4] was 10.8 µM, the GI50 [9] was 4.13 µM and the TGI [9] was 25.3 µM. It also gave a GI50 [5] of 6.1 µM, a TGI [5] of 23.5 µM and a GI50 [6] of 3.12 µM. It also gave a TGI [6] of 13.9 µM, a GI50 [7] of 5.43 µM and a TGI [7] of 19.8 µM.

`CCc1ccc(CCC(=O)Nc2ncc(Cc3ccccc3)s2)o1` showed a GI50 [1] of 1.53 µM, a TGI [1] of 4.38 µM and a GI50 [2] of 0.515 µM. For the same compound, the TGI [2] was > 100 µM, the GI50 [8] was 53.2 µM and the TGI [8] was > 100 µM. For the same compound, the GI50 [3] was 4.47 µM, the TGI [3] was > 100 µM and the GI50 [4] was 1.99 µM. The TGI [4] was > 100 µM, the GI50 [9] was 27.8 µM and the TGI [9] was > 100 µM. The GI50 [5] was 3.93 µM, the TGI [5] was > 100 µM and the GI50 [6] was 4.5 µM. The TGI [6] was > 100 µM, the GI50 [10] was 9.11 µM and the TGI [10] was > 100 µM. The GI50 [7] was 3.92 µM and the TGI [7] was > 100 µM.

`Cc1ccc(NS(=O)(=O)c2cc(C)ccc2C)cc1` was tested, and the GI50 [1] was 3.65 µM, the TGI [1] was 27 µM and the GI50 [2] was 3.59 µM. It also gave a TGI [2] of 83 µM, a GI50 [8] of 15.3 µM and a TGI [8] of 70.4 µM. The GI50 [3] was 4.65 µM, the TGI [3] was 50.5 µM and the GI50 [4] was 2.02 µM. The TGI [4] was 7.61 µM, the GI50 [9] was 20.9 µM and the TGI [9] was > 100 µM. For the same compound, the GI50 [5] was 15.4 µM, the TGI [5] was 72.4 µM and the GI50 [6] was 5.94 µM. The TGI [6] was 42.7 µM, the GI50 [10] was 10.7 µM and the TGI [10] was 37.3 µM. The GI50 [7] was 4.36 µM and the TGI [7] was > 100 µM.

`Cc1cc(-c2nc3ccc(O)cc3s2)ccc1N` was tested, and the GI50 [2] was 56.5 µM, the TGI [2] was > 100 µM and the GI50 [8] was 60.2 µM. For the same compound, the TGI [8] was > 100 µM, the GI50 [3] was 12.5 µM and the TGI [3] was 43.7 µM. For the same compound, the GI50 [4] was 30 µM, the TGI [4] was > 100 µM and the GI50 [9] was 37.2 µM. For the same compound, the TGI [9] was > 100 µM, the GI50 [5] was 82.6 µM and the TGI [5] was > 100 µM. The GI50 [6] was > 100 µM, the TGI [6] was > 100 µM and the GI50 [10] was 64.9 µM. For the same compound, the TGI [10] was > 100 µM, the GI50 [7] was 46 µM and the TGI [7] was > 100 µM.

With `Cn1c2ccc([N+](=O)[O-])cc2c(=O)c2c(O)cc(O)cc21` the TGI [1] was > 100 µM, the TGI [2] was > 100 µM and the TGI [8] was > 100 µM. For the same compound, the TGI [4] was 24 µM, the TGI [9] was > 100 µM and the TGI [5] was > 100 µM. The TGI [6] was 25.9 µM, the TGI [10] was > 100 µM and the TGI [7] was > 100 µM.

In the case of `CCOC(=O)C#Cc1ccc(C#CC(=O)OCC)cc1`, the TGI [1] is reported as 6.34 µM, the TGI [2] is reported as 10.6 µM and the TGI [8] is reported as > 23.7 µM. For the same compound, the TGI [3] was > 30 µM, the TGI [5] was > 21.8 µM and the TGI [6] was > 23.2 µM. The TGI [10] was > 20.9 µM and the TGI [7] was > 38.3 µM.

In the case of `Fc1ccc(-c2nnc3sc(-c4cccc(Cl)c4)nn23)cc1Cl`, the GI50 [1] is reported as > 100 µM, the TGI [1] is reported as > 100 µM and the GI50 [2] is reported as > 100 µM. For the same compound, the TGI [2] was > 100 µM, the GI50 [8] was > 100 µM and the TGI [8] was > 100 µM. For the same compound, the GI50 [3] was > 100 µM, the TGI [3] was > 100 µM and the GI50 [4] was > 100 µM. The TGI [4] was > 100 µM, the GI50 [9] was > 100 µM and the TGI [9] was > 100 µM. For the same compound, the GI50 [5] was > 100 µM, the TGI [5] was > 100 µM and the GI50 [6] was > 100 µM. The TGI [6] was > 100 µM, the GI50 [10] was > 100 µM and the TGI [10] was > 100 µM. The GI50 [7] was > 100 µM and the TGI [7] was > 100 µM.

`Cc1cc(S(=O)(=O)NC#N)c(S/C(=N\Nc2ccc([N+](=O)[O-])cc2)c2ccccc2)cc1Cl` gave a GI50 [1] of 21.6 µM, a TGI [1] of 83.1 µM and a GI50 [2] of 14.7 µM. It also gave a TGI [2] of 28.3 µM, a GI50 [8] of 16.3 µM and a TGI [8] of 33.1 µM. It also gave a GI50 [3] of 15.4 µM, a TGI [3] of 28.8 µM and a GI50 [4] of 14.6 µM. For the same compound, the TGI [4] was 32.6 µM, the GI50 [9] was 13.9 µM and the TGI [9] was 31.8 µM. For the same compound, the GI50 [5] was 15.7 µM, the TGI [5] was 32.4 µM and the GI50 [6] was 16.8 µM. For the same compound, the TGI [6] was 42.8 µM, the GI50 [10] was 17.2 µM and the TGI [10] was 37.4 µM. For the same compound, the GI50 [7] was 38 µM and the TGI [7] was > 100 µM.

Compound `COc1cc(-c2cc(-c3nc4ccccc4[nH]3)[nH]n2)cc(OC)c1OC` has a GI50 [1] of 2.54 µM, a TGI [1] of 10.5 µM and a GI50 [2] of 2.79 µM. For the same compound, the TGI [2] was 10.3 µM, the GI50 [8] was 1.14 µM and the TGI [8] was 7.26 µM. It also gave a GI50 [3] of 2.26 µM, a TGI [3] of 14.4 µM and a GI50 [4] of 1.87 µM. The TGI [4] was 8.81 µM, the GI50 [9] was 1.26 µM and the TGI [9] was 7.03 µM. For the same compound, the GI50 [5] was 13 µM, the TGI [5] was 32.7 µM and the GI50 [6] was 2.35 µM. The TGI [6] was 7.74 µM, the GI50 [10] was 2.72 µM and the TGI [10] was 9.71 µM. The GI50 [7] was 17.8 µM and the TGI [7] was > 100 µM.
